According to PubChem BioAssay AID1645848:
Converted amounts (≈) assume the structure as drawn.

Settings: buffer; pH 7.4; 6.0 h; 150.0 µM

Row | Structure (SMILES) | solubility kinetic
1 | C#CCOc1ccc(-c2nnc(Nc3ccc(NC(C)=O)cc3)c3ccccc23)cc1 | < 1 µg/mL
2 | N#Cc1cccc(-c2csc(N3CCC(C(N)=O)CC3)n2)c1 | 10.7 µg/mL (≈ 34.3 µM)
3 | NC(=O)C1CCN(c2ncnc(-c3ccc4c(c3)OCCCO4)n2)CC1 | > 52 µg/mL
4 | C=CCc1cccc(CNc2ccc(S(=O)(=O)Nc3nccs3)cc2)c1O | 23.1 µg/mL (≈ 57.5 µM)
5 | CC(C)c1ccc(OCc2nc3c(n2Cc2ccccc2)C(=O)N(CC2CCOCC2)CCN3)cc1 | < 1 µg/mL
6 | COCC(C)NCc1cc2ccc(OC)cc2nc1N1CCN(c2ccc(F)cc2)CC1 (stereo unspecified) | 39.5 µg/mL (≈ 90.1 µM)
7 | CC1(C)CC(=O)C2=C(C1)NC(Nc1nc3ccccc3o1)=NC2c1ccccc1Cl (stereo unspecified) | < 1 µg/mL
8 | Cc1ccc(-c2cc(C(=O)Nc3ccc(S(=O)(=O)NCc4nccs4)cc3)c3ccccc3n2)cc1C | 1.66 µg/mL (≈ 3.14 µM)
9 | CCOc1ccccc1C(=O)Nc1ccccc1C(=O)Nc1cccc(S(=O)(=O)C(F)(F)F)c1 | 1.57 µg/mL (≈ 3.18 µM)
10 | CCOC(=O)c1cc(-c2ccco2)nc2c1c(C)nn2CCC#N | 9.9 µg/mL (≈ 30.5 µM)
11 | CN(C(=O)CSc1nc2c(c(=O)[nH]1)CCCC2)c1ccccc1 | > 49 µg/mL
12 | Cc1cc(-c2nnc3n2CCCCC3)c(C)n1-c1ccc(Cl)c(Cl)c1 | 31.6 µg/mL (≈ 84.1 µM)
13 | FC1(F)CCN(c2nc(-c3ccncc3)nc3ccccc23)CC1 | < 1 µg/mL
14 | COc1ccc(C(=O)Nc2nc(-c3ccccc3)cs2)c(NS(=O)(=O)c2ccc(C)cc2)c1 | < 1 µg/mL
15 | Cc1cccc(C)c1NC(=O)c1nc(SC(C)C)ncc1Cl | 1.22 µg/mL (≈ 3.64 µM)
16 | NCC(=O)Nc1cccc(-c2nn3c(=O)cc(N4CCNCC4)nc3s2)c1 | 43.2 µg/mL (≈ 112 µM)
17 | COc1ccc2oc(NC3=NC(c4[nH]ncc4Cl)C4=C(CCCC4=O)N3)nc2c1 (stereo unspecified) | 11.2 µg/mL (≈ 27.2 µM)
18 | Cc1ccc(S(=O)(=O)Nc2cnccc2C(=O)Nc2ccc(-c3nn[nH]n3)cc2)cc1 | > 64 µg/mL
19 | COCCNCc1ccc(-c2cc3nccc(Oc4ccc(NC(=S)NC(=O)Cc5ccc(F)cc5)cc4F)c3s2)nc1 | < 1 µg/mL
20 | Cc1cc(C)nc(NS(=O)(=O)c2ccc(NC(=S)NC(=O)COc3ccc(Br)cc3Cl)cc2)n1 | > 100 µg/mL
21 | O=C(Nc1ccccc1)C1CC(=O)N(c2n[nH]c3cc(Br)ccc23)C1 (stereo unspecified) | < 1 µg/mL
22 | CC1CCCCN1c1ncnc(N)c1[N+](=O)[O-] (stereo unspecified) | > 35 µg/mL
23 | CN(C)C(=O)NC1CCC(CCN2CCN(c3cccc(Cl)c3Cl)CC2)CC1 (stereo unspecified) | 34.8 µg/mL (≈ 81.3 µM)
24 | COc1cc(Cl)c(C)cc1NC(=O)CSc1ncc(S(=O)(=O)c2ccc(C(C)(C)C)cc2)c(=O)[nH]1 | < 1 µg/mL

Row | Structure (SMILES) | solubility kinetic
25 | COc1cc(-c2ccnc3c2c(C)nn3-c2cccc(C(F)(F)F)c2)ccc1O | 16.5 µg/mL (≈ 41.2 µM)
26 | COc1cccc(CNc2ccc(S(=O)(=O)Nc3ccc(N4CCNCC4)cc3)cc2)c1O | 58.3 µg/mL (≈ 124 µM)
27 | O=C1NC(=O)C(c2cnc3ccccn23)=C1c1cn2c3c(cccc13)CN(C(=O)N1CCOCC1)CC2 | > 73 µg/mL
28 | Cc1ccc(S(=O)(=O)Nc2cc(F)ccc2C(=O)Nc2nc(-c3ccccc3)cs2)cc1 | < 1 µg/mL
29 | CC(=O)c1c(C)[nH]c(C(=O)Nc2cccc(S(=O)(=O)Nc3cccc(C#N)c3)c2)c1C | 21 µg/mL (≈ 48.2 µM)
30 | Cc1nc(Sc2nnnn2C)c2c(-c3ccccc3)csc2n1 | 19.4 µg/mL (≈ 57.1 µM)
31 | Cc1ccc(NS(=O)(=O)c2c(C)[nH]c(C)c2C(=O)N2CCCC2)cc1Cl | 48 µg/mL (≈ 121 µM)
32 | Cc1ccc2cccc(NC(=O)c3ccc(OC(C)C)cc3)c2n1 | < 1 µg/mL
33 | O=C(NCc1ccc(N2CCCC2)nc1)c1cc(Cl)ccc1O | 1.3 µg/mL (≈ 3.93 µM)
34 | CC(C)(C)C1CCc2nc(NC(=O)c3cccc(Cl)c3)sc2C1 (stereo unspecified) | < 1 µg/mL
35 | Cc1nn(CCc2nc(-c3ccccc3F)cs2)c2[nH]c(=O)cc(C(F)(F)F)c12 | < 1 µg/mL
36 | CC(=O)c1c(C)[nH]c(C(=O)Nc2ccc(OCCCN(C)C)c(S(=O)(=O)Nc3ccc(Br)cc3)c2)c1C | 39 µg/mL (≈ 66 µM)
37 | CCCNC(=O)c1ccc2c(c1)ncn2-c1cc(C)cc(C)c1 | < 1 µg/mL
38 | COCCn1ccc2c(C3=CCOCC3)nc(-c3cccc(NC(C)=O)c3)cc21 | > 87 µg/mL
39 | Oc1ccc(Nc2nc(-c3ccncc3)nc3ccccc23)cc1F | < 1 µg/mL
40 | Cn1c(=O)c2c(nc(Cl)n2Cc2ccc(Cl)cc2)n(C)c1=O | 2.15 µg/mL (≈ 6.32 µM)
41 | NC(=O)C1CCN(c2nc(-c3ccc(Br)cc3)cs2)CC1 | < 1 µg/mL
42 | Cc1ccc(S(=O)(=O)Nc2cc(Cl)cc(C(=O)Nc3nc(-c4ccccc4)cs3)c2)cc1 | < 1 µg/mL
43 | Cc1ccc(S(=O)(=O)Nc2ccccc2C(=O)Nc2cccc(-c3ccccc3)c2)cc1 | < 1 µg/mL
44 | Cc1ccc(-c2cc(C(=O)Nc3ccc(S(C)(=O)=O)cc3)c3ccccc3n2)cc1C | < 1 µg/mL
45 | Cc1cccc(-n2cnc3cc(C(=O)N4CCCC(C)(C)C4)ccc32)c1 | 37.7 µg/mL (≈ 109 µM)
46 | O=C1Nc2ccccc2C12CC2c1cc(Cl)c(O)c(Cl)c1 (stereo unspecified) | < 1 µg/mL
47 | CCCCn1cnc2cc(NCc3ccc(OCC)cc3)ccc21 | 10.1 µg/mL (≈ 31.2 µM)
48 | O=C(Cc1ccc2ccccc2c1)Nc1ccc(S(=O)(=O)Nc2nccs2)cc1 | 0.228 µg/mL (≈ 0.538 µM)

Row | Structure (SMILES) | solubility kinetic
49 | O=C1CCCC2=C1C(c1[nH]ncc1Cl)N=C(Nc1nc3ccccc3o1)N2 (stereo unspecified) | < 1 µg/mL
50 | COc1ccc(C2=Nn3c(nnc3-c3ccncc3)SC2)cc1 | 9.06 µg/mL (≈ 28 µM)
51 | Fc1cccc(-c2ccc(Nc3nc(-c4ccncc4)nc4ccccc34)cc2F)c1 | < 1 µg/mL
52 | CC1=C(C(=O)Nc2nnc(-c3ccccc3)s2)C(c2[nH]ncc2Cl)N=C(Nc2nc3ccccc3o2)N1 (stereo unspecified) | < 1 µg/mL
53 | O=C(Nc1ccc(N2CCN(C(=O)c3ccccc3F)CC2)cc1)c1cncc(Br)c1 | 3.75 µg/mL (≈ 7.77 µM)
54 | COc1ccc(-n2c(C)c(C(C)=O)c3cc(OC(=O)COc4ccccc4)ccc32)cc1 | < 1 µg/mL
55 | FC(F)(F)c1cccc(Sc2nc(-c3ccccc3)nnc2C(F)(F)F)c1 | < 1 µg/mL
56 | Cc1cc(SCc2sc(-c3ccc(C(F)(F)F)cc3)nc2C)ccc1OCC(=O)O | > 67 µg/mL
57 | CCC(Sc1nc2ccccc2c2nc(CCc3c(C)n[nH]c3C)nn12)C(=O)Nc1ccc(F)cc1 (stereo unspecified) | < 1 µg/mL
58 | Cc1sc(NC(=O)Cc2ccc3c(c2)OCO3)nc1-c1ccc2c(c1)CCN2 | < 1 µg/mL
59 | Cc1ccccc1C(=O)N1CCc2cc(-c3nc(NC(=O)c4ccc5c(c4)OCO5)sc3C)ccc21 | < 1 µg/mL
60 | O=C(Nc1ccc2c(N3CCCCC3)ncnc2c1)c1cc(F)cc(F)c1 | < 1 µg/mL
61 | CCN1CCN(c2ccc3cc(S(=O)(=O)N4CCOCC4)ccc3n2)CC1 | > 58 µg/mL
62 | COc1ccc(C(=O)N[C@@H]2CCC[C@@H]2C(=O)N2CCC(Cc3ccccc3)CC2)cc1 | 17.9 µg/mL (≈ 42.6 µM)
63 | NC(=O)C1CCN(c2nnc(-c3ccc4c(c3)OCCCO4)s2)CC1 | 9.84 µg/mL (≈ 27.3 µM)
64 | COc1ncccc1-c1cc2[nH]ccc2c(C(=O)NCc2c(C)cc(C)[nH]c2=O)n1 | 5.75 µg/mL (≈ 14.3 µM)
65 | COc1ccc2c(c1)/C(=C/c1cnc[nH]1)C(=O)N2 | > 36 µg/mL
66 | Fc1cc(Nc2nc(-c3ccncc3)nc3ccccc23)ccc1-c1cccc(OC(F)(F)F)c1 | < 1 µg/mL
67 | Cc1ccc(-n2nc(C)c3c(-c4ccc(O)c(O)c4)c(C#N)c(N)nc32)cc1C | 1.81 µg/mL (≈ 4.7 µM)
68 | C[C@H]1[C@@H](CCC(=O)Nc2ccc(F)cc2)O[C@@H]2O[C@]3(C)CC[C@@H]4[C@H](C)CC[C@@H]1[C@@]24OO3 | 24 µg/mL (≈ 55.3 µM)
69 | O=C(C1CC(=O)N(c2n[nH]c3ccccc23)C1)N1CCC(c2noc3cc(F)ccc23)CC1 (stereo unspecified) | 2.36 µg/mL (≈ 5.28 µM)
70 | COc1cccc(CNc2ccc([S+](=O)([O-])Nc3cc4ccccc4s3)cc2)c1O | < 1 µg/mL
71 | COCc1cc(C)nc(SCC(=O)c2ccc(O)c(O)c2)c1C#N | 13.2 µg/mL (≈ 38.2 µM)
72 | O=c1c2c([nH]c3ccc(Br)cc13)CCCC2 | 4.86 µg/mL (≈ 17.5 µM)

Row | Structure (SMILES) | solubility kinetic
73 | CS(=O)(=O)c1ccc(-c2nnc(/C=C/c3nnc(-c4ccc(C#N)cc4)o3)n2-c2ccccc2Cl)nc1 | 4.17 µg/mL (≈ 7.86 µM)
74 | CCn1c(-c2nonc2N)nc2cnc(Oc3cccc(NC(=O)c4ccc(OCCN5CCOCC5)cc4)c3)cc21 | < 1 µg/mL
75 | COc1ccc(NC(=O)c2[nH]c(C)c(C(C)=O)c2C)cc1S(=O)(=O)Nc1cccc(C#N)c1 | 2.28 µg/mL (≈ 4.9 µM)
76 | O=C(Nc1ccc(S(=O)(=O)Nc2nccs2)cc1)c1ccnc(-c2ccccc2)c1 | 15.6 µg/mL (≈ 35.8 µM)
77 | CCOc1ccc(CCNC(=O)c2cc3c(s2)CCC3)cc1OCC | 4.46 µg/mL (≈ 12.4 µM)
78 | COc1ccc(CCN2C(=O)N(c3ccc(F)cc3)C(=O)C2CC(=O)Nc2ccc(F)c(F)c2)cc1 (stereo unspecified) | 9.71 µg/mL (≈ 19.5 µM)
79 | NC(=O)COc1ccc(C2CC(=O)Nc3n[nH]c(Nc4ccccc4)c32)cc1 (stereo unspecified) | 41.7 µg/mL (≈ 110 µM)
80 | COc1ccc(-n2nc(C3CCCN(C(=O)Cc4ccc(F)cc4)C3)[nH]c2=O)cc1 (stereo unspecified) | > 61 µg/mL
81 | COc1ccc(-c2noc([C@@H]3Cc4nc[nH]c4CN3C(=O)NC3CCCCC3)n2)cc1 | 30.5 µg/mL (≈ 72.1 µM)
82 | Cn1cc2c3c(cccc31)CN(C(=O)c1ccc(F)c(Cl)c1)CC2 | < 1 µg/mL
83 | Cc1cc(-c2ccc(C)c(S(=O)(=O)NCC3CCN(Cc4ccc(F)cc4)CC3)c2)on1 | 40.5 µg/mL (≈ 88.5 µM)
84 | COc1cccc(CNc2ccc(S(=O)(=O)Nc3ccccc3)cc2)c1O | < 1 µg/mL
85 | O=C1Nc2ccc(C(=O)c3ccco3)cc2/C1=C/c1cc(Cl)c(O)c(Cl)c1 | 9.16 µg/mL (≈ 22.9 µM)
86 | CCC(CC)c1cc([C@H]2CN3CC[C@H]2C[C@@H]3CNC(=O)COc2ccccc2)nc(-c2ccncc2)n1 | > 74 µg/mL
87 | O=[S+]([O-])(Nc1ccc(N2CCNCC2)cc1)c1ccc(NCc2cccc(Cl)c2O)cc1 | 52.4 µg/mL (≈ 111 µM)
88 | CCOC(=O)c1[nH]c(C)c(CCC(=O)N2CCN(c3cccc(C)c3C)CC2)c1C | < 1 µg/mL
89 | C[C@H]1CN(C(=O)c2nn(C)c3ccccc23)C[C@@H]1c1nc(-c2ccncc2)no1 | 34.9 µg/mL (≈ 89.8 µM)
90 | O=C([C@@H]1CCCN(c2ccc3[nH]c(C4(n5cc(Cl)cn5)CC4)nc3n2)C1)N1CCCC1 | 27.2 µg/mL (≈ 61.8 µM)
91 | COc1ccccc1C(=O)NC1CCCc2c1[nH]c1c(Cl)cccc21 (stereo unspecified) | < 1 µg/mL
92 | CN1CCN(CCCN2c3ccccc3Sc3ccc(S(=O)(=O)N(C)C)cc32)CC1.CS(=O)(=O)O.CS(=O)(=O)O | > 66 µg/mL
93 | O=S(=O)(c1ccccc1)N1CCN(c2nc(-c3ccc(Br)cc3)cs2)CC1 | 1.23 µg/mL (≈ 2.66 µM)
94 | Cc1ccnc(NC(=S)N2CCN(c3ccc(C(F)(F)F)cc3)CC2)c1 | < 1 µg/mL
95 | COc1ccc(-c2ccc(Nc3nc(-c4ccncc4)nc4ccccc34)cc2F)cc1F | < 1 µg/mL
96 | Brc1ccc(-c2csc(N3CCC(c4nn[nH]n4)CC3)n2)cc1 | > 58 µg/mL
